# Assay results from patent US11583525B2, “Geranylgeranyltransferase I inhibitor for treatment of a PTEN defective cancer” (H. LEE MOFFITT CANCER CENTER AND RESEARCH INSTITUTE, INC., priority 2017, dated 2023).
# Peptide text beside a SMILES is read from it. * marks the point of attachment. Cbz = O=C(OCc1ccccc1)*
# System: Ca2+ response
# Test: Ca2+ response measured with aequorin in COS-7 cells expressing IP3R3(Q-FR/A-AA)
# Type: cell-based, African Green Monkey
# Settings: serum re-stimulated 4 h with MG132, ATP
# Experimental: FIGS. 1A, 1B, 1C, 1D, 1E, 1F, 1G, and 1H show FBXL2-mediated degradation of IP3R3 controls Ca2+ flux and sensitivity to apoptosis. […] Left, two representative traces. Right, quantification of three independent experiments. P values were calculated by one-way ANOVA and multiple-comparisons test. Error bars indicate s.e.m. 1b, 1c, and 1d, Apoptosis evaluated after treatment with H2O2 using automated nuclei count analysis of twenty randomly chosen fields following a 16 h treatment (1b), immunoblot detection of cleaved PARP and cleaved caspase-3 following a 3 h treatment (1c), and automated analysis of cells with released cytochrome c (Cyt c) from 80 randomly chosen fields following a 3 h treatment (1d). […] P values were calculated by one-way ANOVA and multiple-comparisons test. […] Left, representative traces show concentrations of cytosolic Ca2+ measured with aequorin. Right, quantification of three independent experiments. P values were calculated by one-way ANOVA and multiple-comparisons test. […] Apoptosis shown in 1h was evaluated as in 1b, except that H2O2 treatment was for 5 h. Analysis of cytochrome c release shown in 1i was evaluated as in 1d. P values were calculated by unpaired t-test. […]
# FIGS. 7A, 7B, 7C, 7D, 7E, 7F, 7G, 7H, and 7I show FBXL2 controls Ca2+ mobilization and Ca2+-mediated apoptosis. […] P values were calculated by one-way ANOVA and multiple-comparisons test. […]
compound,measurement,value
CC(C)C[C@@H](C=O)NC(=O)[C@H](CC(C)C)NC(=O)[C@H](CC(C)C)NC(=O)OCc1ccccc1 [MG132] (Cbz-Leu-Leu-Leu-aldehyde),Ca2+ response,did not produce an increase of the Ca2+ response
